Measured values: patent US5486532A, “Benzospiroalkenes” (Adir et Compagnie, priority 1993, dated 1996)

Legend:
alpha2-adrenergic = experiment: Amyelated rats, alpha2-adrenergic component (C20 ratio with yohimbine); assay type: in vivo, Sprague Dawley rats; conditions: pretreated with yohimbine (1 mg/kg)
Description: (§1) Male Sprague Dawley rats (300-400 g) are anesthetized with ether. The trachea is cannulated, the spinal column is destroyed using a stainless-steel rod and the animal is 1. 5 immediately placed under artificial respiration. The vagus nerves are dissected. The carotid arteries are ligatured and a catheter is placed in one and serves to record the arterial pressure. Three other catheters are placed in the jugular veins and in the vein of the penis and serve for the injections. The temperature of the animals is maintained at 36° C. The animal is pretreated by an injection of tertatolol […]. The animal is also pretreated 10 minutes later with prazosin ([…]) or yohimbine (1 mg/kg) when it is desired to determine the alpha1 - or alpha2-adrenergic properties of the product. Ten minutes later, increasing cumulative doses of product are injected every 20 seconds. The variations in arterial pressure are detected using a Statham P23XL pressure cell and are recorded. The pressure values are expressed in mmHg. This experiment makes it possible to calculate the concentration which increases the pressure by 20 mmHg (C20) by non-linear regression according to the mass action law model of Michaelis and Menten as described above. The maximum effect obtained is subsequently convened to a percentage relative to the maximum effect induced by phenylephrine. The alpha1 - or alpha2-adrenergic components of the product are evaluated using the C20 ratio obtained in the presence of prazosin or yohimbine on the values obtained in the absence of these antagonists. In amyelated rats, the products of the invention produce hypertensions which are sensitive to prazosin and to yohimbine.

alpha1-adrenergic = experiment: Amyelated rats, alpha1-adrenergic component (C20 ratio with prazosin); assay type: in vivo, Sprague Dawley rats; conditions: pretreated with prazosin
Description: as §1

[1] = system: arterial pressure in amyelated rats; experiment: In vivo study in amyelated rats, arterial pressure; parameters: species or system Sprague Dawley rats; conditions: Rattus norvegicus, iv, tertatolol pretreated, no prazosin or yohimbine, read-out: C20 Control (concentration which increases the pressure by 20 mmHg)
Description: as §1

saphena veins = experiment: Contraction of isolated dog saphena veins; conditions: Canis lupus familiaris; for EC50: dog saphena vein rings, cumulative doses; for Emax: maximum contraction relative to 100 mM KCl, dog saphena vein, read-out: VEIN Max
Experimental: (§2) The technique used is based on that described by Fowler et al. (J. Pharmacol. Exp. Ther., 229, 712-718, 1984). Male or female mongrel dogs of approximately 15-25 kg were used as organ sources. The animals are anesthetized with pentobarbital (30 mg/kg intravenously). The legs are incized and the blood vessels removed. They are placed in Krebs-Ringer liquid (118 mM NaCl; 25 mM NaHCO3; 10 mM Glucose; 4.7 mM KCl; 1.25 mM CaCl2; 1.19 mM MgSO4; 1.14 mM KH2 PO4) at room temperature and under a sparge of carbogen (95% O2, 5% CO2). These blood vessels are then carefully freed of their fat and then cut into rings 2 mm wide and mounted under a base tension of 4 g (femoral arteries) or 1 g (saphena veins) in tanks thermostated at 37° C. containing Krebs-Ringer liquid and constantly sparged with carbogen. A lower hook constitutes the fixed point, whereas the upper hook is connected to an isometric force sensor. The variations in tension are digitized, stored on disk and processed by an information technology system. After mounting, the organs are left to rest for 90 minutes, with rinses being carried out every 30 min. After readjustment of the base tension, a contraction is induced by a single dose of KCl (100 mM). After stabilization, washing and returning to the base line, a contraction is provoqued by a single dose of phenylephrine (submaximal concentration) in order to regulate the following contractions. After washing and returning to the baseline, an effect/concentration curve is produced by addition of cumulative doses of agonist (the space between the doses is a semi-log). This experiment makes it possible to calculate the 50% effective concentration (EC50) in the following way: the tension values are first of all converted to percentages relative to the maximum effect induced by 100 mM of KCl. This EC50 is determined by non-linear regression by the SIMPLEX method (M. S. Caceci, Byte, 340-362, 1984), calculated according to the mass action law model of L. Michaelis and M. L. Menten (Biochem. Zeitschrift, 49, 333-369, 1913).
(§3) E=(Emax*C^n)(EC^n +C^n) with E=effect; Emax=maximum effect; C=concentration; EC=EC50; n=Hill number
(§4) The products of the invention contract dog arteries and veins. The maximum for these contractions approaches that obtained with KCl.

dog femoral arteries = experiment: Contraction of isolated dog femoral arteries; conditions: Canis lupus familiaris; for EC50: dog femoral artery rings, cumulative doses; for Emax: maximum contraction relative to 100 mM KCl, dog femoral artery, read-out: ARTERY Max
Experimental: as §2, §3, §4

SMILES | Ratio treated C20 / control C20, Yohimbine (alpha2-adrenergic) | Ratio treated C20 / control C20, Prazosin (alpha1-adrenergic) | ED (20 mmHg) [1] [µg/kg] | EC50 (saphena veins) [µM] | Emax (saphena veins) [%] | EC50 (dog femoral arteries) [µM] | Emax (dog femoral arteries) [%]
Clc1cccc2c1CC1(CC2)CNC=N1 (single isomer, unassigned) [Example 6, Spiro[(1,3-diazacyclopent-1-ene)-5:2'-(8'-chloro-1',2',3', 4'-tetrahydronaphthalene)]L-(+)-tartrate, αisomer] | 4.0 | 1.7 | 0.1 | 7 | 96 | 2 | 91
Clc1cccc2c1CC1(CC2)CNC=N1 (centres unmarked) [Example 1, Spiro[(1,3-diazacyciopent-1-ene)-5:2'-(8'-chloro-1', 2',3',4'-tetrahydronaphthalene)]fumarate] | 6.0 | 1.9 | 0.2 | 0.2 | 95 | 1 | 94
